Source: patent US11497740B2, “Use of Jumonji C demethylase inhibitors for the treatment and prevention of chemotherapy resistance and radioresistance in cancer” (THE BOARD OF REGENTS OF THE UNIVERSITY OF TEXAS SYSTEM, priority 2016, dated 2022)

Tests used:
[1] = system: HCC4017 T5; assay: MTS cell viability assay, HCC4017 T5 resistant variant vs parental; type: cell-based, human; details: HCC4017 T5 vs parental
Protocol: NSCLC lines were treated with paclitaxel+carboplatin combination, given in a ˜2:3 wt/wt ratio, to mirror the clinical dosage values of ˜225 mg/m2 and ˜330 mg/m2, paclitaxel and carboplatin respectively. Note that considering the molecular weights of the two drugs, this translates to approximately a 1 to 3.4 molar ratio. Drugs were given in cycles, following a drug on/drug off treatment scheme. Each cycle consisted of 4-5 days of drug treatment and drug-free culturing for about 1-2 weeks or more to allow the surviving cells to repopulate the plate. […] Untreated parental cells were simultaneously maintained at all times for comparison. Cell viability was assessed in 96-well plates using standard MTS assays (Promega). Treatment duration in MTS assays was 4 days. Drugs were tested in two- or four-fold serial dilutions, totaling 8 different drug concentrations, with 8 replicates per concentration. Response was validated in multiple replicate plates (n≥3).
Cell viability was assessed by standard MTS assays using Promega's CellTiter reagents. Eight drug concentrations given as two- or four-fold dilutions were tested for each chemotherapeutic agent. In addition, each experiment contained eight replicates per concentration and the entire assay was performed in multiple replicates (n≥3).

[2] = system: DNA-PKcs; assay: DNA-PKcs p-T2609 foci kinetics after IR; type: cell-based, Human; details: H1299; JIB-04 16 nM 4 h, 10 Gy
Protocol: NSCLCs were seeded onto Lab-Tek II Chamber Slides (Thermo Fisher) and 24 hours later pretreated with JIB-04 or DMSO for 4 h. Then cells were exposed to a total dose of 2 Gy (γH2AX and 53BP1) or 10 Gy (RAD-51 and DNAPKcs p-T2609) radiation. For knockdown and overexpression experiments H1299 cells were transfected using the Amaxa Nucleofector; program X-005. Specifically, 3×10^6 were transfected with siRNA duplexes targeting JMJD2A, JMJD2B, Jarid1A, Jarid1b, scrambled siRNA (250 nM final concentration) or expression vectors pCMVHA-JMJD2A, pCMVHA-JMJD2B, pCMVHA-Jarid1A, pCMVHA-Jarid1B, PC-2 for 72 hours, followed by quantification of expression or irradiation. Then, cells were fixed in 4% formaldehyde/PBS for 15 min, permeabilized with 0.5% Triton X-100 for 15 min on ice, and blocked with 5% bovine serum albumin in PBS for 1 h. The slides were incubated with an antibody against phospho-Histone γH2AX (1:1000, 3 h at room temperature), 53BP1 (1:500, 3 h at room temperature), Rad-51 (1:500, 48 hs 4° C.) or DNAPKcs p-T2609 (1:500, 48 hs 4° C.). Alexa Fluor 488-conjugated goat anti-Rabbit, […] goat anti-mouse or rhodamine red-conjugated goat anti-mouse secondaries antibodies were used (1:1000, 1 h at room temperature). […] Cells were analyzed on a Zeiss upright fluorescent microscope.

[3] = system: H3K9me3 demethylases; assay: Histone demethylase activity in H1299 cellular extracts (H3K9me3); type: cell-based, Human; details: JIB-04 4 h, no IR
Protocol: For Histone demethylase activity determination 2×10^6 H1299 cells were seeded in P150 plates. After 24 h cells were pretreated with JIB-04 or DMSO for 4 h, irradiated with a total dose of 8 Gy of radiation. Then cells were sonicated (3×4 sec) and equal amounts of protein were incubated with a histone H3K4me3 or H3K9me3 substrate in a reaction buffer containing cofactors for 1 h at 37° C. Finally specific immune-detection of the H3K4me2 or H3K9me2 product using the Epigentek kit P-3081 for H3K9me3 demethylation and P-3083 for H3K4me3 demethylation. Background readings were given by heat inactivated extracts.

Clc1ccc(N/N=C(\c2ccccc2)c2ccccn2)nc1 [JIB-04]
fold increased sensitivity vs parental [1]: ~3 fold
DNA-PKcs foci resolution [2]: majority of DNA-PKcs foci remained unresolved even 24 h post irradiation
DNA-PKcs recruitment to DSBs [2]: robust deficiency in DNA-PKcs recruitment with foci not forming until 6 h post IR
basal H3K9me3 demethylase activity [3]: did not have any effects on basal activity
